Results: patent US20260356841A1, “HETEROCYCLIC PYRIDINONE COMPOUNDS AS TRIGGERING RECEPTOR EXPRESSED ON MYELOID CELLS 2 AGONISTS AND METHODS OF USE” (Vigil Neuroscience, Inc., priority 2023, published 2026)

biological target: T1, human TREM2 (Homo sapiens, UniProt Q9NZC2); assay: TREM2 agonist potency by cellular phosphorylation of Spleen Tyrosine Kinase (Syk), AlphaLisa, HEK293T-hTREM2 cells; format: cell-based; details: not given
T1 construct: expressed in transfected cells; host or cells: HEK293T (HEK293T-hTREM2 cells)
Experimental: Measurement of TREM2 agonist potency was done using a HEK cell line expressing human TREM2 and DAP12 (HEK293T-hTREM2 cells). Binding of small molecules to, and activation of, TREM2 increases the phosphorylation of Syk. The resultant levels of Syk phosphorylation are measured using a commercial AlphaLisa reagent kit. To perform the assay, HEK-hTREM2 cells were plated at 14,000 cells per well in a 384 well plate, in 25 μL of complete growth media and incubated at 37° C., 5% CO2 for 20-24 hours.
Prior to the assay, test compounds were diluted in the 384 well plates in assay buffer and allowed to equilibrate for 30 minutes. Growth media was removed from cell plates by inversion on blotting paper, and 25 μL of test articles in assay buffer was added to cells. Cells were incubated for 45 minutes at room temperature. After 45 minutes, assay buffer was removed and 10 μL of lysis buffer was added. Plates were shaken for 20 minutes at 350 RPM at room temperature. After complete lysis, AlphaLisa reagents were added to the lysate, and fluorescence intensity was measured using a Perkin Elmer Envision plate reader. Intensities were used to generate a standard curve, and % activation was calculated. Curve fitting was performed using Prism v9 software, log (agonist) vs response-variable slope (four parameters), and EC50s were calculated from the curve fit.
The results presented in Table B have been generated with the in vitro assay described above. This assay may be used to test any of the compounds described herein to assess and characterize a compound's ability to act as an agonist of TREM2.

T1 sequence (Q9NZC2 19-230): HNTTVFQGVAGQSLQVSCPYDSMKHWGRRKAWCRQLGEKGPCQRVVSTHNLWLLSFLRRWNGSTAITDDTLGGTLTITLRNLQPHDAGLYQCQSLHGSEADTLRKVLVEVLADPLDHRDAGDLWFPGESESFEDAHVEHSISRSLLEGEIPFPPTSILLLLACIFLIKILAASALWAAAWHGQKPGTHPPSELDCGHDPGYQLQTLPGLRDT
T1 sequence (O43914 22-113 partner): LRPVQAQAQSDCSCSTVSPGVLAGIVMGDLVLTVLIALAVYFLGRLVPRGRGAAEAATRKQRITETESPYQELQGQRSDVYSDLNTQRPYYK

EC50 [nM]	SMILES
< 100	[2H]C([2H])([2H])C([2H])(n1cc([C@H]2C[C@@H](c3nc(C45CC(C(F)(F)F)(C4)C5)c4nc(C)c(C)nc4n3)CCO2)ccc1=O)C([2H])([2H])[2H] [Example 88, 5-[(2R,4S)-4-[6,7-dimethyl-4-[3-(trifluoromethyl)-1-bicyclo[1.1.1]pentanyl]pteridin-2-yl]tetrahydropyran-2-yl]-1-[1,2,2,2-tetradeuterio-1-(trideuteriomethyl)ethyl]pyridin-2-one]

same assay, conditions: hTREM2 EC50 Data (HEK293 Cells); Syk phosphorylation, AlphaLisa; read-out: hTREM2 EC50

SMILES	EC50 [nM]
Cc1nc2nc([C@@H]3CCO[C@H](c4ccc(=O)n(C(C)C)c4)C3)nc(C34CC(C(F)(F)F)(C3)C4)c2nc1C [Example 78, 1-isopropyl-5-[(2S,4R)-4-[6,7-dimethyl-4-[3-(trifluoromethyl)-1-bicyclo[1.1.1]-pentanyl]pteridin-2-yl]tetrahydropyran-2-yl]pyridin-2-one]	< 100
CCn1cc([C@H]2C[C@@H](c3nc(C45CC(C(F)(F)F)(C4)C5)c4nc(C)c(C)nc4n3)CCO2)ccc1=O [Example 80, 5-[(2R,4S)-4-[6,7-dimethyl-4-[3-(trifluoromethyl)-1-bicyclo[1.1.1]pentanyl]pteridin-2-yl]tetrahydropyran-2-yl]-1-ethyl-pyridin-2-one]	< 100
COCCn1cc([C@H]2C[C@@H](c3nc(C45CC(C(F)(F)F)(C4)C5)c4nc(C)c(C)nc4n3)CCO2)ccc1=O [Example 82, 5-[(2R,4S)-4-[6,7-dimethyl-4-[3-(trifluoromethyl)-1-bicyclo[1.1.1]pentanyl]pteridin-2-yl]tetrahydropyran-2-yl]-1-(2-methoxyethyl)pyridin-2-one]	< 100
Cc1nc2nc([C@H]3CCO[C@@H](c4ccc(=O)n(CCO)c4)C3)nc(C34CC(C(F)(F)F)(C3)C4)c2nc1C [Example 84, 5-[(2R,4S)-4-[6,7-dimethyl-4-[3-(trifluoromethyl)-1-bicyclo[1.1.1]pentanyl]pteridin-2-yl]tetrahydropyran-2-yl]-1-(2-hydroxyethyl)pyridin-2-one]	< 100
Cc1nc2nc([C@H]3CCO[C@@H](c4ccc(=O)n(CC#N)c4)C3)nc(C34CC(C(F)(F)F)(C3)C4)c2nc1C [Example 86, 2-[5-[(2R,4S)-4-[6,7-dimethyl-4-[3-(trifluoromethyl)-1-bicyclo[1.1.1]pentanyl]pteridin-2-yl]tetrahydropyran-2-yl]-2-oxo-1-pyridyl]acetonitrile]	< 100
Cc1nc2nc([C@H]3CCO[C@@H](c4ccc(=O)n(C(F)F)c4)C3)nc(C34CC(C(F)(F)F)(C3)C4)c2nc1C [Example 90]	< 100
[2H]C([2H])([2H])n1cc([C@H]2C[C@@H](c3nc(C4CC45CC5(F)F)c4nc(C)c(C)nc4n3)CCO2)ccc1=O (stereo partly drawn) [Example 92, 5-((2R,4S)-4-(4-(4,4-difluorospiro[2.2]pentan-1-yl)-6,7-dimethylpteridin-2-yl)tetrahydro-2H-pyran-2-yl)-1-(methyl-d3)pyridin-2(1H)-one]	> 500
Cc1nc2nc([C@H]3CCO[C@@H](c4ccc(=O)n(C5CCC5)c4)C3)nc(C34CC(C(F)(F)F)(C3)C4)c2nc1C [Example 94, 1-cyclobutyl-5-[(2R,4S)-4-[6,7-dimethyl-4-[3-(trifluoromethyl)-1 bicyclo[1.1.1]pentanyl]pteridin-2-yl]tetrahydropyran-2-yl]pyridin-2-one]	< 100
Cc1nc2nc([C@H]3CCO[C@@H](c4ccc(=O)n(CC5(C#N)CC5)c4)C3)nc(C34CC(C(F)(F)F)(C3)C4)c2nc1C [Example 98, 1-[[5-[(2R,4S)-4-[6,7-dimethyl-4-[3-(trifluoromethyl)-1-bicyclo[1.1.1]pentanyl]pteridin-2-yl]tetrahydropyran-2-yl]-2-oxo-1-pyridyl]methyl]cyclopropanecarbonitrile]	< 100
Cc1nc2nc([C@H]3CCO[C@@H](c4ccc(=O)n(CC5(C)CC5)c4)C3)nc(C34CC(C(F)(F)F)(C3)C4)c2nc1C [Example 100, 5-[(2R,4S)-4-[6,7-dimethyl-4-[3-(trifluoromethyl)-1-bicyclo[1.1.1]pentanyl]pteridin-2-yl]tetrahydropyran-2-yl]-1-[(1-methylcyclopropyl)methyl]pyridin-2-one]	< 100
Cc1nc2nc([C@H]3C[C@@H](C)O[C@@H](c4ccc(=O)n(C5CC5)c4)C3)nc(C34CC(C(F)(F)F)(C3)C4)c2nc1C [Example 102, 1-cyclopropyl-5-[(2R,4S,6R)-4-[6,7-dimethyl-4-[3-(trifluoromethyl)-1-bicyclo[1.1.1]pentanyl]pteridin-2-yl]-6-methyl-tetrahydropyran-2-yl]pyridin-2-one]	< 100
Cc1cc(-n2cc([C@H]3CC(c4nc(C56CC(C(F)(F)F)(C5)C6)c5nc(C)c(C)nc5n4)CCO3)ccc2=O)cs1 (stereo partly drawn) [Example 104, 5-((2R)-4-(6,7-dimethyl-4-(3-(trifluoromethyl)bicyclo-[1.1.1]pentan-1-yl)pteridin-2-yl)tetrahydro-2H-pyran-2-yl)-1-(5-methylthiophen-3-yl)pyridin-2 (1H)-one]	< 100
Cc1cc(-n2cc([C@H]3C[C@@H](c4nc(C56CC(C(F)(F)F)(C5)C6)c5nc(C)c(C)nc5n4)CCO3)ccc2=O)cs1 [Example 105, 5-((2R,4S)-4-(6,7-dimethyl-4-(3-(trifluoromethyl)bicyclo[1.1.1]pentan-1-yl)pteridin-2-yl)tetrahydro-2H-pyran-2-yl)-1-(5-methylthiophen-3-yl)pyridin-2 (1H)-one]	< 100
Cc1nc2nc([C@H]3CCO[C@@H](c4ccc(=O)n(C5COC5)c4)C3)nc(C34CC(C(F)(F)F)(C3)C4)c2nc1C [Example 107, 5-[(2R,4S)-4-[6,7-dimethyl-4-[3-(trifluoromethyl)-1-bicyclo[1.1.1]pentanyl]pteridin-2-yl]tetrahydropyran-2-yl]-1-(oxetan-3-yl)pyridin-2-one]	< 100

The next lines start with the values.

EC50 [nM]	SMILES
< 100	Cc1nc2nc([C@H]3CCO[C@@H](c4ccc(=O)n(-c5cscn5)c4)C3)nc(C34CC(C(F)(F)F)(C3)C4)c2nc1C [Example 110, 5-((2R,4S)-4-(6,7-dimethyl-4-(3-(trifluoromethyl)bicyclo[1.1.1]pentan-1-yl)pteridin-2-yl)tetrahydro-2H-pyran-2-yl)-1-(thiazol-4-yl)pyridin-2(1H)-one]
< 100	Cc1nc2nc([C@H]3CCO[C@@H](c4ccc(=O)n(-c5csc(C6CC6)c5)c4)C3)nc(C34CC(C(F)(F)F)(C3)C4)c2nc1C [Example 112]
< 100	Cc1nc(-n2cc([C@H]3C[C@@H](c4nc(C56CC(C(F)(F)F)(C5)C6)c5nc(C)c(C)nc5n4)CCO3)ccc2=O)cs1 [Example 114, 5-((2R,4S)-4-(6,7-dimethyl-4-(3-(trifluoro-methyl)bicyclo[1.1.1]pentan-1-yl)pteridin-2-yl)tetrahydro-2H-pyran-2-yl)-1-(2-methyl-thiazol-4-yl)pyridin-2(1H)-one]
< 100	Cc1nc2nc([C@H]3CCO[C@@H](c4ccc(=O)n(-c5cnco5)c4)C3)nc(C34CC(C(F)(F)F)(C3)C4)c2nc1C [Example 116, 5-((2R,4S)-4-(6,7-dimethyl-4-(3-(trifluoromethyl)-bicyclo-[1.1.1]pentan-1-yl)pteridin-2-yl)tetrahydro-2H-pyran-2-yl)-1-(oxazol-5-yl)pyridin-2(1H)-one]
< 100	Cc1nc2nc([C@H]3CCO[C@@H](c4ccc(=O)n(C56CC(C5)C6)c4)C3)nc(C34CC(C(F)(F)F)(C3)C4)c2nc1C [Example 120, 1-(1-bicyclo[1.1.1]pentanyl)-5-[(2R,4S)-4-[6,7-dimethyl-4-[3-(trifluoromethyl)-1-bicyclo-[1.1.1]pentanyl]pteridin-2-yl]tetrahydropyran-2-yl]pyridin-2-one]
< 100	Cc1nc2nc([C@@H]3CCO[C@H](c4ccc(=O)n(C56CC(C5)C6)c4)C3)nc(C34CC(C(F)(F)F)(C3)C4)c2nc1C [Example 121, 1-(1-bicyclo[1.1.1]pentanyl)-5-[(2S,4R)-4-[6,7-dimethyl-4-[3-(trifluoromethyl)-1-bicyclo[1.1.1]-pentanyl]pteridin-2-yl]tetrahydropyran-2-yl]pyridine-2-one]
< 100	Cc1cnc2c(C34CC(C(F)(F)F)(C3)C4)nc([C@H]3CCO[C@@H](c4ccc(=O)n(C)c4)C3)nc2n1 [Example 123, 1-methyl-5-((2R,4S)-4-(7-methyl-4-(3-(trifluoromethyl)bicyclo-[1.1.1]pentan-1-yl)pteridin-2-yl)tetrahydro-2H-pyran-2-yl)pyridin-2(1H)-one]
100 to 500	Cc1cnc2c(C34CC(C(F)(F)F)(C3)C4)nc([C@@H]3CCO[C@H](c4ccc(=O)n(C)c4)C3)nc2n1 [Example 124, 1-methyl-5-((2S,4R)-4-(7-methyl-4-(3-(trifluoromethyl)bicyclo[1.1.1]pentan-1-yl)pteridin-2-yl)tetrahydro-2H-pyran-2-yl)pyridin-2(1H)-one]
100 to 500	Cc1nc2nc([C@H]3CCO[C@@H](c4ccc(=O)n(C)c4)C3)nc(-c3ccc(C(F)(F)F)cc3F)c2nc1C(F)F [Example 126, 5-[(2R,4S)-4-[6-(difluoromethyl)-4-[2-fluoro-4-(trifluoromethyl)phenyl]-7-methyl-pteridin-2-yl]tetrahydropyran-2-yl]-1-methyl-pyridin-2-one]
